From the supplement of paper PMC10627819

Legend:
[1] = system: S. pneumoniae D39V; experiment: fitness (endpoint OD595 vs no drug) (fraction); higher = more growth
Procedure, shortened: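 Each well of a 384-well plate received 30 µl of culture at OD595 0.01, or 55 µl for S. pneumoniae. TSB, LB Lennox or CY served as media at 37 °C. OD595 was taken every 30 min for 14 h and corrected by subtracting the first reading. Fitness is the optical density at stationary-phase entry divided by the robust mean of no-drug controls, capped at 1.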

[2] = system: B. subtilis 168; experiment: Bliss interaction score (quartile over a dose matrix) (fitness difference); higher = more antagonism (negative = synergy)
Procedure, shortened: (§1)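 Quartiles of the Bliss score were taken over technical, biological and donor/recipient replicates. That score is observed fitness minus the product of the single-drug fitness values, which were inferred from combination data. Fitness itself is OD595 at entry into stationary phase divided by the plate's robust no-drug mean, with a cap at 1.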

[3] = system: S. aureus DSM 20231; experiment: as above
Procedure, shortened: as §1

[4] = system: S. aureus Newman; experiment: as above
Procedure, shortened: as §1

[5] = system: S. pneumoniae D39V; experiment: as above
Procedure, shortened: as §1
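Wherever Bliss interaction score (quartile over a dose matrix) is given: first quartile when negative (synergy) and third quartile when positive (antagonism).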

C[C@H]1COc2c(N3CCN(C)CC3)c(F)cc3c(=O)c(C(=O)O)cn1c23 [Levofloxacin] + Clc1ccc(COC(Cn2ccnc2)c2ccc(Cl)cc2Cl)c(Cl)c1 [Miconazole]
[1]
Conditions | fitness
first compound 0.1725 µg/mL, partner 1.25 µg/mL | 0.955
first compound 0.1725 µg/mL, partner 2.5 µg/mL | 0.976
first compound 0.1725 µg/mL, partner 5 µg/mL | 0.963
first compound 0.2 µg/mL, partner 1.073 µg/mL | ≥ 1
first compound 0.2 µg/mL, partner 2.145 µg/mL | ≥ 1
first compound 0.2 µg/mL, partner 4.29 µg/mL | 0.978
first compound 0.345 µg/mL, partner 1.25 µg/mL | 0.866
first compound 0.345 µg/mL, partner 2.5 µg/mL | 0.856
first compound 0.345 µg/mL, partner 5 µg/mL | 0.859
first compound 0.4 µg/mL, partner 1.073 µg/mL | 0.934
first compound 0.4 µg/mL, partner 2.145 µg/mL | 0.941
first compound 0.4 µg/mL, partner 4.29 µg/mL | 0.825
first compound 0.69 µg/mL, partner 1.25 µg/mL | 0.576
first compound 0.69 µg/mL, partner 2.5 µg/mL | 0.432
first compound 0.69 µg/mL, partner 5 µg/mL | 0.578
first compound 0.8 µg/mL, partner 4.29 µg/mL | 0.769

Conditions | Bliss interaction score
[2] | 0.0649
[3] | -0.0265
[4] | 0.0464
[5] | 0.11

C[C@H]1COc2c(N3CCN(C)CC3)c(F)cc3c(=O)c(C(=O)O)cn1c23 [Levofloxacin] + Cn1nnc(-c2ccc(-c3ccc(N4C[C@H](CO)OC4=O)cc3F)cn2)n1 [Tedizolid]
fitness, [1]
Conditions | first compound 0.1725 µg/mL | first compound 0.2 µg/mL | first compound 0.345 µg/mL | first compound 0.4 µg/mL | first compound 0.69 µg/mL | first compound 0.8 µg/mL
partner 0.03125 µg/mL | – | 0.921 | – | 0.855 | – | 0.629
partner 0.0625 µg/mL | – | 0.94 | – | 0.878 | – | 0.731
partner 0.125 µg/mL | 0.758 | 0.768 | 0.703 | 0.731 | 0.433 | 0.608
partner 0.25 µg/mL | 0.826 | – | 0.757 | – | 0.401 | –
partner 0.5 µg/mL | 0.243 | – | 0.203 | – | 0.189 | –

Conditions | Bliss interaction score
[2] | 0.0224
[3] | 0.0821
[4] | 0.057
[5] | -0.126

C[C@H]1COc2c(N3CCN(C)CC3)c(F)cc3c(=O)c(C(=O)O)cn1c23 [Levofloxacin] + O=C1CN(/N=C/c2ccc([N+](=O)[O-])o2)C(=O)N1 [Nitrofurantoin]
fitness, [1]
Conditions | first compound 0.1725 µg/mL | first compound 0.2 µg/mL | first compound 0.345 µg/mL | first compound 0.4 µg/mL | first compound 0.69 µg/mL | first compound 0.8 µg/mL
partner 1.285 µg/mL | – | 0.894 | – | 0.842 | – | 0.558
partner 2 µg/mL | 0.921 | – | 0.852 | – | 0.568 | –
partner 2.57 µg/mL | – | 0.909 | – | 0.865 | – | 0.524
partner 4 µg/mL | 0.92 | – | 0.797 | – | 0.535 | –
partner 8 µg/mL | 0.799 | – | 0.688 | – | 0.38 | –

[1], partner 5.14 µg/mL, one replicate
Conditions | fitness
first compound 0.2 µg/mL | 0.86
first compound 0.4 µg/mL | 0.75
first compound 0.8 µg/mL | 0.317

Conditions | Bliss interaction score
[2] | 0.0577
[3] | 0.027
[4] | -0.0599
[5] | -0.0691

CN(C)C(=O)C(CCN1CCC(O)(c2ccc(Cl)cc2)CC1)(c1ccccc1)c1ccccc1 [Loperamide] + C/C(=C\C(=O)OCCCCCCCCC(=O)O)C[C@@H]1OC[C@H](C[C@@H]2O[C@H]2[C@@H](C)[C@H](C)O)[C@@H](O)[C@H]1O [Pseudomonic acid]
fitness, [1]
Conditions | first compound 17.14 µg/mL | first compound 20 µg/mL | first compound 34.28 µg/mL | first compound 40 µg/mL | first compound 80 µg/mL
partner 0.03 µg/mL | ≥ 1 | 0.9 | 0.99 | 0.961 | 0.845
partner 0.06 µg/mL | 0.859 | 0.726 | 0.808 | 0.766 | 0.747
partner 0.12 µg/mL | 0.686 | 0.544 | 0.632 | 0.569 | 0.509

[1], first compound 68.57 µg/mL, one replicate
Conditions | fitness
partner 0.03 µg/mL | ≥ 1
partner 0.06 µg/mL | 0.996
partner 0.12 µg/mL | 0.663

Conditions | Bliss interaction score
[2] | -0.0528
[3] | 0.0202
[4] | 0.0342
[5] | 0.121

CN(C)C(=O)C(CCN1CCC(O)(c2ccc(Cl)cc2)CC1)(c1ccccc1)c1ccccc1 [Loperamide] + CN[C@H](CC(C)C)C(=O)N[C@H]1C(=O)N[C@@H](CC(N)=O)C(=O)N[C@H]2C(=O)N[C@H]3C(=O)N[C@H](C(=O)N[C@H](C(=O)O)c4cc(O)cc(O)c4-c4cc3ccc4O)[C@H](O)c3ccc(c(Cl)c3)Oc3cc2cc(c3O[C@@H]2O[C@H](CO)[C@@H](O)[C@H](O)[C@H]2O[C@H]2C[C@](C)(N)[C@H](O)[C@H](C)O2)Oc2ccc(cc2Cl)[C@H]1O [Vancomycin]
[1]
Conditions | fitness
first compound 17.14 µg/mL, partner 0.5 µg/mL | 0.0584
first compound 20 µg/mL, partner 0.03125 µg/mL | ≥ 1
first compound 20 µg/mL, partner 0.0625 µg/mL | 0.937
first compound 34.28 µg/mL, partner 0.25 µg/mL | 0.77
first compound 34.28 µg/mL, partner 0.5 µg/mL | 0.0876
first compound 40 µg/mL, partner 0.03125 µg/mL | 0.959
first compound 40 µg/mL, partner 0.0625 µg/mL | 0.866
first compound 80 µg/mL, partner 0.125 µg/mL | 0.28

[1], first compound 68.57 µg/mL, one replicate
Conditions | fitness
partner 0.125 µg/mL | 0.942
partner 0.25 µg/mL | 0.853
partner 0.5 µg/mL | 0.0639

Conditions | Bliss interaction score
[2] | -0.0281
[3] | -0.0861
[4] | 0.0922
[5] | -0.184

CN(C)C(=O)C(CCN1CCC(O)(c2ccc(Cl)cc2)CC1)(c1ccccc1)c1ccccc1 [Loperamide] + CO[C@H]1/C=C/O[C@@]2(C)Oc3c(C)c(O)c4c(O)c(c(/C=N/N5CCN(C)CC5)c(O)c4c3C2=O)NC(=O)/C(C)=C\C=C\[C@H](C)[C@H](O)[C@@H](C)[C@@H](O)[C@@H](C)[C@H](OC(C)=O)[C@@H]1C [Rifampicin]
fitness, [1]
Conditions | first compound 17.14 µg/mL | first compound 34.28 µg/mL
partner 0.05 µg/mL | 0.875 | –
partner 0.2 µg/mL | 0.145 | 0.136

fitness, [1], one replicate
Conditions | first compound 20 µg/mL | first compound 40 µg/mL | first compound 68.57 µg/mL | first compound 80 µg/mL
partner 0.025 µg/mL | 0.92 | 0.921 | – | 0.701
partner 0.05 µg/mL | – | – | 0.833 | –
partner 0.1 µg/mL | – | – | 0.544 | –
partner 0.2 µg/mL | 0 | 0 | 0.14 | 0

Conditions | Bliss interaction score
[2] | 0.161
[3] | -0.0475
[4] | 0.012
[5] | -0.0733

CN(C)C(=O)C(CCN1CCC(O)(c2ccc(Cl)cc2)CC1)(c1ccccc1)c1ccccc1 [Loperamide] + Clc1ccc(COC(Cn2ccnc2)c2ccc(Cl)cc2Cl)c(Cl)c1 [Miconazole]
fitness, [1]
Conditions | partner 1.073 µg/mL | partner 1.25 µg/mL | partner 2.145 µg/mL | partner 2.5 µg/mL | partner 4.29 µg/mL | partner 5 µg/mL
first compound 17.14 µg/mL | – | 0.963 | – | 0.954 | – | 0.933
first compound 20 µg/mL | ≥ 1 | – | ≥ 1 | – | 0.926 | –
first compound 34.28 µg/mL | – | 0.884 | – | 0.907 | – | 0.925
first compound 40 µg/mL | ≥ 1 | – | 0.955 | – | 0.731 | –

[1], first compound 68.57 µg/mL, one replicate
Conditions | fitness
partner 1.25 µg/mL | 0.857
partner 2.5 µg/mL | 0.85
partner 5 µg/mL | 0.923

Conditions | Bliss interaction score
[2] | -0.136
[3] | 0.0862
[4] | -0.158
[5] | -0.0772

CN(C)C(=O)C(CCN1CCC(O)(c2ccc(Cl)cc2)CC1)(c1ccccc1)c1ccccc1 [Loperamide] + Cn1nnc(-c2ccc(-c3ccc(N4C[C@H](CO)OC4=O)cc3F)cn2)n1 [Tedizolid]
fitness, [1]
Conditions | first compound 17.14 µg/mL | first compound 20 µg/mL | first compound 34.28 µg/mL | first compound 40 µg/mL | first compound 80 µg/mL
partner 0.03125 µg/mL | – | 0.997 | – | ≥ 1 | ≥ 1
partner 0.0625 µg/mL | – | ≥ 1 | – | ≥ 1 | ≥ 1
partner 0.125 µg/mL | 0.933 | 0.908 | 0.961 | 0.94 | 0.976
partner 0.5 µg/mL | 0.532 | – | 0.529 | – | –

[1], first compound 68.57 µg/mL, one replicate
Conditions | fitness
partner 0.125 µg/mL | 0.979
partner 0.25 µg/mL | 0.963
partner 0.5 µg/mL | 0.468

Conditions | Bliss interaction score
[2] | 0.06
[3] | 0.198
[4] | 0.102
[5] | 0.243

CN(C)C(=O)C(CCN1CCC(O)(c2ccc(Cl)cc2)CC1)(c1ccccc1)c1ccccc1 [Loperamide] + O=C1CN(/N=C/c2ccc([N+](=O)[O-])o2)C(=O)N1 [Nitrofurantoin]
[1]
Conditions | fitness
first compound 17.14 µg/mL, partner 2 µg/mL | 0.906
first compound 17.14 µg/mL, partner 4 µg/mL | 0.924
first compound 17.14 µg/mL, partner 8 µg/mL | 0.856
first compound 20 µg/mL, partner 1.285 µg/mL | ≥ 1
first compound 20 µg/mL, partner 2.57 µg/mL | 0.98
first compound 34.28 µg/mL, partner 2 µg/mL | 0.904
first compound 34.28 µg/mL, partner 4 µg/mL | 0.941
first compound 34.28 µg/mL, partner 8 µg/mL | 0.883
first compound 40 µg/mL, partner 1.285 µg/mL | ≥ 1
first compound 40 µg/mL, partner 2.57 µg/mL | 0.981
first compound 80 µg/mL, partner 1.285 µg/mL | 0.805
first compound 80 µg/mL, partner 2.57 µg/mL | 0.821

[1], one replicate
Conditions | fitness
first compound 20 µg/mL, partner 5.14 µg/mL | ≥ 1
first compound 40 µg/mL, partner 5.14 µg/mL | ≥ 1
first compound 68.57 µg/mL, partner 2 µg/mL | 0.901
first compound 68.57 µg/mL, partner 4 µg/mL | 0.914
first compound 68.57 µg/mL, partner 8 µg/mL | 0.851
first compound 80 µg/mL, partner 5.14 µg/mL | 0.806

Conditions | Bliss interaction score
[2] | 0.0384
[3] | 0.0206
[4] | 0.045
[5] | 0.106

CCN(CC)CCOC(=O)c1ccc(N)cc1 [Procaine] + CO[C@H]1/C=C/O[C@@]2(C)Oc3c(C)c(O)c4c(O)c(c(/C=N/N5CCN(C)CC5)c(O)c4c3C2=O)NC(=O)/C(C)=C\C=C\[C@H](C)[C@H](O)[C@@H](C)[C@@H](O)[C@@H](C)[C@H](OC(C)=O)[C@@H]1C [Rifampicin]
[1], partner 0.025 µg/mL, one replicate
Conditions | fitness
first compound 85.5 µg/mL | 0.903
first compound 171 µg/mL | 0.875
first compound 342 µg/mL | 0.919

fitness, [1]
Conditions | first compound 85.5 µg/mL | first compound 171 µg/mL | first compound 342 µg/mL
partner 0.05 µg/mL | 0.927 | 0.909 | 0.984
partner 0.2 µg/mL | 0.102 | 0.0616 | 0.132

Conditions | Bliss interaction score
[2] | -0.0578
[3] | -0.054
[4] | -0.0206
[5] | 0.0704
